Data as given in ChEMBL document CHEMBL1147222, “Lowdenic acid: a new antifungal polyketide-derived metabolite from a new fungicolous Verticillium sp” (2003).
Values after ≈ are worked out from the molar mass of the structure shown.

Key:
Assay type in all cases: functional
Aspergillus flavus [1] = assay: Antifungal activity against Aspergillus flavus NRRL 6541 at 250 ug/disk; details: read-out: IZ
Aspergillus flavus [2] = assay: Antifungal activity against Aspergillus flavus NRRL 6541
Candida albicans = assay: Antifungal activity against Candida albicans ATCC 90029 at 200 ug/disk by standard disk assay; details: read-out: IZ
Staphylococcus aureus = assay: Antibacterial activity against Staphylococcus aureus ATCC 29213 at 200 ug/disk by standard disk assay; details: read-out: IZ
Bacillus subtilis = assay: Antibacterial activity against Bacillus subtilis ATCC 6051 at 200 ug/disk by standard disk assay; details: read-out: IZ

With `CCCCCCCCCC[C@@H](C)CCC[C@@]1(C)C=C/C(=C2/C(=O)O[C@H](CC(=O)O)C2=O)O1` [LOWDENIC ACID] the zone of inhibition at 250 µg/disc (Aspergillus flavus [1]) was 14 mm, the MIC (Aspergillus flavus [2]) was 6 µg/mL (≈ 13.4 µM) and the zone of inhibition at 200 µg/disc (Candida albicans) was 9 mm. For the same compound, the zone of inhibition at 200 µg/disc (Staphylococcus aureus) was 12 mm and the zone of inhibition at 200 µg/disc (Bacillus subtilis) was 17 mm.
